In publication PMC10376129, “Mechanistic Understanding of Idiosyncratic Drug-Induced Hepatotoxicity Using Co-Cultures of Hepatocytes and Macrophages” (Antioxidants, 2023):
“Also recorded” adds a separate entry of the source.

Assays:
HepG2 cells = assay: MTT cytotoxicity in HepG2 monocultures; format: cell-based, human; settings: for CC50: Homo sapiens, HepG2 monoculture, 24 h exposure, in presence of LPS and IFN-γ, read-out: IC50 values; for effects on the viability: LPS and IFN-γ together, HepG2 cells, Supplementary Figure S1
Procedure: HepG2 cells (ECACC No. 85011430) were cultured in Ham’s F-12/Leibovitz L-15 (1:1 v/v), supplemented with 7% FBS, 50 U of penicillin/mL, and 50 μg of streptomycin/mL.
HepG2 cells were seeded at a density of 47,000 cells/cm^2 as a monoculture control for all the experiments.
(§1) For the toxicity studies, HepG2 cells alone or in co-culture with different proportions of M1 macrophages were seeded in 96-well plates (15,000 cells/well) and were allowed to grow and equilibrate for 24 h. Then, cells were exposed for 24 h to eight concentrations of the tested compounds (TVX, LVX, TGZ, RGZ). Each experimental condition was assayed in triplicate wells. Test compounds were diluted in DMSO, and then easily diluted in the culture medium to obtain the desired final concentrations (Table 1). The final DMSO concentration in the culture medium never exceeded 0.5% (v/v), and the control cultures were treated with the same amount of solvent.
(§2) Cytotoxicity was assessed by means of the tetrazolium reduction colorimetric assay (MTT test) as previously described in detail.

[1] = test system: co-cultures of HepG2 and M1-THP-1 cells; assay: MTT cytotoxicity in direct co-cultures of HepG2 and M1-THP-1 macrophages; format: cell-based; settings: Homo sapiens, HepG2, 24 h, 24 h exposure
Procedure: (§3) THP-1 cells were differentiated to macrophages via incubation with phorbol-12-myrsitate 13-acetate (PMA, 20 or 50 ng/mL) for 72 h. After differentiation, THP-1 cells became adherent with typical macrophage morphology. To generate M1 macrophages, cells were then stimulated with LPS (1 µg/mL) in the presence or absence of interferon γ (IFN-γ) (20 ng/mL) as described in Figure 1.
For subculturing purposes, cells (HepG2 or THP-1) were detached via treatment with 0.25% trypsin/0.02% EDTA at 37 °C. In order to determine the effect of pro-inflammatory macrophages on HepG2 cells, different co-culture conditions were tested. Co-culture proportions were 1:10, 1:5, and 1:2 (M1:HepG2), respectively. Cells were seeded at 47,000 cells/cm^2 per condition and co-culture media consisted of HepG2 and M1-THP-1 cell culture media (1:1). The schedule followed for co-culturing HepG2 cells and M1-THP-1 macrophages is exemplified in Figure 2.
as §1, §2

[2] = test system: HepG2 monocultures and different co-cultures of HepG2 and M1-THP-1 cells; assay: Concentration-dependent toxicity compared across test systems (MTT viability); format: cell-based; settings: 24 h exposure; for concentrations producing significant cell death / decrease in viability: Figure 6; for effect on viability in co-cultures compared to monocultures of HepG2 cells: co-culture ratios 1:10, 1:5, 1:2
Procedure: as §1, §2
Data represent triplicate measurements and are expressed as the mean ± SD. Student’s t-test was used for statistical evaluations between two groups, whereas one-way ANOVA followed by Tukey’s multiple comparisons test was used when comparing 3 or more groups. The level of significance was chosen as p < 0.05 and calculated using GraphPad Prism v. 8.4.3.

[3] = test system: HepG2 cells and co-cultures at different ratios (1:10, 1:5, and 1:2); assay: Gene expression (RT-qPCR) of oxidative stress, GSH-related and apoptotic genes in treated cultures; format: cell-based, human
Text: Total RNA was extracted using the RNeasy Plus Mini Kit (Qiagen, Madrid, Spain), and was reverse transcribed as described elsewhere. Diluted cDNA was amplified using LightCycler DNA Master SYBR Green I (Roche Applied Science, Barcelona, Spain) and the appropriate primers (Supplementary Table S2) were amplified using a LightCycler 480 Instrument (Roche Applied Science, Barcelona, Spain). For normalization, porphobilinogen deaminase (PBGD), TATA box binding protein (TBP), Large Ribosomal Subunit Protein UL10 (RPLP0), and actin were used. During each amplification, a reference calibrator cDNA, made from a pool of human livers, was included. The relative mRNA expression was calculated using the LightCycler Relative Quantification Analysis software verson 1.5.0.39. Based on PCR efficiencies and the cycle thresholds, the relative concentration of the target and reference cDNAs and their ratio were determined. Additionally, gene expression analysis of test systems alone or treated with the selected toxic compounds was also performed as indicated in Section 2.3.2. For toxicotranscriptomics studies, cells were seeded in P12-well plates at a density of 47,000 cells/cm^2.

[4] = parameters: method as in PMID 18524759; settings: cited from earlier work
THP-1 cells = assay: Viability of THP-1 cells after differentiation to pro-inflammatory macrophages; format: cell-based, human; settings: PMA 50 ng/mL for differentiation followed by LPS and IFN-γ
Procedure: as §3

[5] = 100 µM, compared to non-treated cells

C[C@H]1COc2c(N3CCN(C)CC3)c(F)cc3c(=O)c(C(=O)O)cn1c23 [Levofloxacin]
CC50 (HepG2 cells): > 800 µM
IC50 ([1]; Co-culture 1.10 (M1:HepG2)): > 800 µM
IC50 ([1]; Co-culture 1.2 (M1:HepG2)): > 800 µM
IC50 ([1]; Co-culture 1.5 (M1:HepG2)): > 800 µM
concentrations producing significant cell death / decrease in viability [2]: > 750 µM
effect on viability in co-cultures compared to monocultures of HepG2 cells [2]: no synergic effect was observed
mRNA levels of Nfr2 pathway, GSH-related enzymes and apoptotic genes ([3]; 25 µM, 24 h, compared to non-treated cultures): did not significantly change the gene expression
Cmax [4]: 15.7 µM

CCCCCCCCCCCCCC(=O)O[C@@H]1[C@@H](C)[C@@]2(O)[C@@H](C=C(CO)C[C@]3(O)C(=O)C(C)=C[C@@H]23)[C@@H]2C(C)(C)[C@]12OC(C)=O [PMA, phorbol-12-myrsitate 13-acetate]
viability after differentiation (THP-1 cells): 79 ± 5

CN(CCOc1ccc(CC2SC(=O)NC2=O)cc1)c1ccccn1 (stereo not drawn) [Rosiglitazone]
CC50 (HepG2 cells): > 250 µM
IC50 ([1]; Co-culture 1.10 (M1:HepG2)): > 250 µM
IC50 ([1]; Co-culture 1.2 (M1:HepG2)): > 250 µM
IC50 ([1]; Co-culture 1.5 (M1:HepG2)): > 250 µM
concentrations producing significant cell death / decrease in viability [2]: higher than 200 µM
effect on viability in co-cultures compared to monocultures of HepG2 cells [2]: no significant differences between the test systems were found
mRNA levels of Nfr2 pathway, GSH-related enzymes and apoptotic genes [3, 5]: produced increases in the expression of GCLM, TXNRD1, and DDIT

Cc1c(C)c2c(c(C)c1O)CCC(C)(COc1ccc(CC3SC(=O)NC3=O)cc1)O2 (stereo not drawn) [Troglitazone]
CC50 (HepG2 cells): 223 µM
IC50 ([1]; Co-culture 1.10 (M1:HepG2)): 208 µM
IC50 ([1]; Co-culture 1.2 (M1:HepG2)): 188 µM
IC50 ([1]; Co-culture 1.5 (M1:HepG2)): 203 µM
concentrations producing significant cell death / decrease in viability [2]: higher than 100 µM
effect on viability in co-cultures compared to monocultures of HepG2 cells [2]: decrease in the viability was more significant in the co-cultures at the highest ratios of M1 cells
mRNA levels of Nfr2 pathway, GSH-related enzymes and apoptotic genes [3, 5]: increased the GCLM, DDIT, and TXNRD1 levels and reduced the GSTA2, GSTA4, GSTT1, and GPX2 levels

N[C@@H]1[C@H]2CN(c3nc4c(cc3F)c(=O)c(C(=O)O)cn4-c3ccc(F)cc3F)C[C@@H]12 [Trovafloxacin]
CC50 (HepG2 cells): 675 µM
IC50 ([1]; Co-culture 1.10 (M1:HepG2)): 531 µM
IC50 ([1]; Co-culture 1.2 (M1:HepG2)): 74 µM
IC50 ([1]; Co-culture 1.5 (M1:HepG2)): 529 µM
concentrations producing significant cell death / decrease in viability [2]: higher than 50 µM
effect on viability in co-cultures compared to monocultures of HepG2 cells [2]: A synergistic effect was detected in the co-cultures
mRNA levels of Nfr2 pathway, GSH-related enzymes and apoptotic genes ([3]; 25 µM, 24 h, compared to non-treated cultures, listed as TVX): reduced the GSTT1, GSTT2, GSTA2, GSTA4, NNQO1, GPX1, GPX2, and GPX4 levels in all the culture conditions; also recorded: Increased levels of AT4 and SOD2
Cmax [4]: 4.1 µM

lipopolysaccharide [LPS]
effects on the viability (HepG2 cells): No significant effects on the viability

B1: interferon γ (protein, UniProt P01579 24-161, looked up)
Interferon gamma: QDPYVKEAENLKKYFNAGHSDVADNGTLFLGILKNWKEESDRKIMQSQIVSFYFKLFKNFKDDQSIQKSVETIKEDMNVKFFNSNKKKRDDFEKLTNYSVTDLNVQRKAIHELIQVMAELSPAAKTGKRKRSQMLFRG
notes: cytokine used with LPS to generate M1 macrophages
effects on the viability (HepG2 cells): No significant effects on the viability
